From patent publication US6818407B2, “Anti-endotoxic antimicrobial cationic peptides and methods of use therfor” (priority 1998, dated 2004)
Ends that are not written are not given here.

Tests used:
S. aureus K147 = test: MIC, broth microdilution assay in polypropylene microtiter trays; assay type: cell-based; conditions: average of three separate experiments
Method in brief: (§1)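 Broth microdilution in polypropylene microtiter trays; MIC taken as lowest peptide concentration giving no change in OD over a set period.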

E. coli [1] = test: as above; assay type: cell-based; conditions: average of three separate experiments
Method in brief: as §1

P. aeruginosa = test: as above; assay type: cell-based; conditions: average of three separate experiments
Method in brief: as §1

S. epidermis = test: as above; assay type: cell-based; conditions: average of three separate experiments
Method in brief: as §1

S. aureus = test: as above; assay type: cell-based; conditions: average of three separate experiments
Method in brief: as §1

[2] = tested on: Pseudomonas aeruginosa strain M2; test: Protection of neutropenic CD-1 mice challenged with Pseudomonas aeruginosa; assay type: in vivo; design: Survival post bacterial challenge, surviving mice: reference not given here; conditions: for Survival (%) post bacterial challenge: PBS 8
Description: CD-1 mice were induced to be neutropenic via 3 intraperitoneal injections of cyclophosphamide ([…]) every another day. Immediately after the third administration of cyclophosphamide, the mice were challenged by intraperitoneal injection of Pseudomonas aeruginosa strain M2 (200-300 organisms/mouse). Cationic peptides (200 µg per mouse=8 mg/kg) in 100 µl buffered citrate were injected intraperitoneally at 30 min (single dose) or 30 min and 16 hrs (double dose) post bacterial challenge, respectively. The data were the average values of 2 individual experiments. PBS was used as a control. […] In general single dose protection studies gave better protection than double dose experiments.

[3] = tested on: β-lactamase derepressed mutant (H547) of P. aeruginosa; test: microbe, parasite or virus in culture; assay type: cell-based; conditions: P. aeruginosa H547; for (B) MIC of Carb when combined with peptide: Carbenicillin with peptide at concentration (A); for MIC A MIC of Peptides: peptide alone; for (A) Peptide doses together with Carb: peptide concentration in combination with Carbenicillin
Description: (§2) The biological activity of the peptides can be determined by standard methods known to those of skill in the art, such as Aminimal inhibitory concentration (MIC)≅ assay described in the present examples, whereby the lowest concentration at which no change in OD is observed for a given period of time is recorded as MIC. Alternatively, Afractional inhibitory concentration (FIC)≅ is also useful for determination of synergy between the peptides of the invention, or the peptides in combination with known antibiotics. FICs are performed by checkerboard titrations of peptides in one dimension of a microtiter plate, and of antibiotics in the other dimension, for example. The FIC is calculated by looking at the impact of one antibiotic on the MIC of the other and vice versa. […] Preferably, an FIC of less than 0.5 is obtained for synergism. As used herein, FIC can be determined as follows: [formula]
(§3) To test whether the peptides of the invention synergize with various antibiotics, the following method was employed. Fractional Inhibitory Concentration (FIC) was used to determine synergy of peptides combined with antibiotics (e.g., carbenicillin/ciprofloxacin) against Pseudomonas aeruginosa. The following methodology was followed:
(§4) (1) Determination of MIC of cationic peptides (MIC A):
(§5) 100 μl Mueller Hinton broth (MHB) was added per well
(§6) 12.5 μl of 10× test concentration peptide was added per well to get final peptide concentration of e.g., 128, 64, 32, . . . 0.025 μg/ml from row 1 to 11;
(§7) 10 μl of 10^−4 dilution of overnight bacterial culture was added per well.
(§8) (2) Determination of MIC of Carbenicillin/Ciprofloxacin (MIC B):
(§9) 100 μl MHB was added per well;
(§10) 100 μl of 2× test concentration of antibiotic was added in the first well of the row, and doubling dilutions performed across the plate from column 1 to 11;
(§11) (3) Determination of MIC of antibiotics (B) when combined with peptides at concentration A:
(§12) 100 μl Carbenicillin (512 μg/ml) or Ciprofloxacin (8 μg/ml) was added in each well of column 1; doubling dilutions were performed across the plate;
(§13) 100 μl of the peptide was added in all wells of row 1, mixed, and 100 μl withdrawn and added to row 2, etc., creating a checkerboard titration.
(§14) 10 μl of 10^−4 dilution of overnight culture was added per well;
(§15) plates were incubated at 37EC for 18-24 hours. Combination MIC values A and B were taken as the lowest concentration of drug that reduced bacterial growth by more than 50% in any given column.
(§16) (4) FIC index=FICA+FICB=(A)/MIC A+(B)/MIC B. An FIC index of approximately 0.5 or less indicates synergy; 1.0 reflects additivity; and >1.0 indicates antagonism.

[4] = tested on: mutant (Nal B, H744) of P. aeruginosa; test: microbe, parasite or virus in culture; assay type: cell-based; conditions: for (B) MIC of Cipro when combined with peptide: ciprofloxacin with peptide at concentration (A); for (B) MIC of Cipro when combined with peptide / (A) Peptide doses together with Cipro: Nal B, H744; for MIC A MIC of Peptides: peptide alone, P. aeruginosa mutant Nal B, H744 (Table 5); for (A) Peptide doses together with Cipro: peptide concentration in combination with ciprofloxacin
Description: as §2, §3, §4, §5, §6, §7, §8, §9, §10, §11, §12, §13, §14, §15, §16

[5] = Lethal endotoxemia in galactosamine-sensitized mice; assay type: in vivo, CD-1 mice; conditions: peptide 200 μg intraperitoneal within 10 min of 10 μg LPS; 24 hours post injection; 5 mice per group; no peptide 100
Description: To confirm this in vivo, endotoxic shock was induced by intraperitoneal injection of 10 μg of E.coli 0111:B4 LPS in phosphate-buffered saline (PBS; pH 7.2) into galactosamine-sensitized 8- to 10- week old female CD-1 mice (5 per group). In experiments involving peptides, 200 μg in 100 μl of sterile water was injected at separate intraperitoneal sites within 10 min of LPS injection. Survival was monitored at 24 hours post injection.

P. aeruginosa (H103) = test: Synergy study (checkerboard titration) with hen white lysozyme; assay type: cell-based; conditions: for Lowest [CP] showing synergy: cationic peptide concentration, combined with lysozyme; for Lowest [Lyso] showing synergy: lysozyme concentration, combined with the peptide
Description: as §2

E. coli [6] = test: as above; assay type: cell-based; conditions: for Lowest [CP] showing synergy: cationic peptide concentration, combined with lysozyme; for Lowest [Lyso] showing synergy: lysozyme concentration, combined with the peptide
Description: as §2

Salmonella typhi = test: as above; assay type: cell-based; conditions: for Lowest [CP] showing synergy: cationic peptide concentration, combined with lysozyme; for Lowest [Lyso] showing synergy: lysozyme concentration, combined with the peptide
Description: as §2

[7] = double dose (200 μg per mouse i.p. at 30 min and 16 hrs), 16 hr
[8] = single dose (200 μg per mouse i.p. at 30 min), 16 hr

Compound: CC[C@H](C)[C@H](NC(=O)CNC(=O)[C@@H](NC(=O)[C@H](CCCCN)NC(=O)[C@H](CCCCN)NC(=O)[C@H](Cc1ccccc1)NC(=O)[C@H](CCCCN)NC(=O)[C@H](Cc1c[nH]c2ccccc12)NC(=O)[C@@H](N)CCCCN)[C@@H](C)CC)C(=O)NCC(=O)N[C@@H](C)C(=O)N[C@H](C(=O)N[C@@H](CC(C)C)C(=O)N[C@@H](CCCCN)C(=O)N[C@H](C(=O)N[C@@H](CC(C)C)C(=O)N[C@@H](CCCCN)C(=O)N[C@H](C(=O)N[C@@H](CC(C)C)C(=O)N[C@H](C(=O)N[C@H](C(=O)NCC(=O)N[C@@H](CC(C)C)C(=O)N1CCC[C@H]1C(=O)N[C@@H](C)C(=O)N[C@@H](CC(C)C)C(=O)N[C@@H](CCCCN)C(=O)N[C@@H](CC(C)C)C(=O)N[C@H](C(=O)N[C@@H](CC(C)C)C(=O)N[C@@H](CCCCN)C(=O)O)[C@@H](C)O)[C@@H](C)O)[C@@H](C)O)C(C)C)C(C)C)C(C)C [CM6]
- MIC S. aureus K147 (S. aureus K147): 32 µg/mL
- MIC E. coli (E. coli [1]): 2 µg/mL
- MIC P. aeruginosa (P. aeruginosa): 8 µg/mL
- MIC S. epidermis (S. epidermis): 8 µg/mL
- MIC S. aureus (S. aureus): 32 µg/mL
- Survival post bacterial challenge, surviving mice [2, 7]: 14
- Survival post bacterial challenge, surviving mice ([2]; double dose, 24 hr): 14
- Survival post bacterial challenge, surviving mice ([2]; double dose, 41 hr): 11
- Survival post bacterial challenge, surviving mice ([2]; double dose, 48 hr): 9
- Survival post bacterial challenge, surviving mice ([2]; double dose, 64 hr): 6
- Survival (%) post bacterial challenge ([2]; double dose, 64 hr): 42%
- Survival post bacterial challenge, surviving mice ([2]; double dose, 72 hr): 6
- Survival (%) post bacterial challenge ([2]; double dose, 72 hr): 42%
- Survival post bacterial challenge, surviving mice ([2]; double dose, 96 hr): 5
- Survival (%) post bacterial challenge ([2]; double dose, 96 hr): 35%
- Survival post bacterial challenge, surviving mice [2, 8]: 15
- Survival post bacterial challenge, surviving mice ([2]; single dose, 24 hr): 15
- Survival post bacterial challenge, surviving mice ([2]; single dose, 41 hr): 13
- Survival post bacterial challenge, surviving mice ([2]; single dose, 48 hr): 11
- Survival post bacterial challenge, surviving mice ([2]; single dose, 64 hr): 9
- Survival (%) post bacterial challenge ([2]; single dose, 64 hr): 60%
- Survival post bacterial challenge, surviving mice ([2]; single dose, 72 hr): 9
- Survival (%) post bacterial challenge ([2]; single dose, 72 hr): 60%
- Survival post bacterial challenge, surviving mice ([2]; single dose, 96 hr): 7
- Survival (%) post bacterial challenge ([2]; single dose, 96 hr): 46%
- (B) MIC of Carb when combined with peptide [3]: 64 µg/mL
- MIC A MIC of Peptides [3]: 2 µg/mL
- (A) Peptide doses together with Carb [3]: 1 µg/mL
- (B) MIC of Cipro when combined with peptide [4]: .125 µg/mL
- MIC A MIC of Peptides [4]: 1 µg/mL
- (A) Peptide doses together with Cipro [4]: 1 µg/mL
- Mortality (%) [5]: 100%
- FIC for combination of cationic peptide and lysozyme (P. aeruginosa (H103)): 0.63
- Lowest [CP] showing synergy (P. aeruginosa (H103)): 5.21 µg/mL
- Lowest [Lyso] showing synergy (P. aeruginosa (H103)): 125 µg/mL
- FIC for combination of cationic peptide and lysozyme (E. coli [6]): 0.08
- Lowest [CP] showing synergy (E. coli [6]): 0.326 µg/mL
- Lowest [Lyso] showing synergy (E. coli [6]): 7.8 µg/mL
- FIC for combination of cationic peptide and lysozyme (Salmonella typhi): 0.50
- Lowest [CP] showing synergy (Salmonella typhi): 5.21 µg/mL
- Lowest [Lyso] showing synergy (Salmonella typhi): 7.8 µg/mL

Compound: KWKSFIKKLTKAAKKVVTTAKKPLIV [CM2]
- MIC S. aureus K147 (S. aureus K147): >64 µg/mL
- MIC E. coli (E. coli [1]): 1 µg/mL
- MIC P. aeruginosa (P. aeruginosa): 3 µg/mL
- MIC S. epidermis (S. epidermis): 5 µg/mL
- MIC S. aureus (S. aureus): >64 µg/mL
- Survival post bacterial challenge, surviving mice [2, 7]: 14
- Survival post bacterial challenge, surviving mice ([2]; double dose, 24 hr): 14
- Survival post bacterial challenge, surviving mice ([2]; double dose, 41 hr): 10
- Survival post bacterial challenge, surviving mice ([2]; double dose, 48 hr): 7
- Survival post bacterial challenge, surviving mice ([2]; double dose, 64 hr): 7
- Survival (%) post bacterial challenge ([2]; double dose, 64 hr): 50%
- Survival post bacterial challenge, surviving mice ([2]; double dose, 72 hr): 7
- Survival (%) post bacterial challenge ([2]; double dose, 72 hr): 50%
- Survival post bacterial challenge, surviving mice ([2]; double dose, 96 hr): 6
- Survival (%) post bacterial challenge ([2]; double dose, 96 hr): 42%
- Survival post bacterial challenge, surviving mice [2, 8]: 15
- Survival post bacterial challenge, surviving mice ([2]; single dose, 24 hr): 15
- Survival post bacterial challenge, surviving mice ([2]; single dose, 41 hr): 13
- Survival post bacterial challenge, surviving mice ([2]; single dose, 48 hr): 12
- Survival post bacterial challenge, surviving mice ([2]; single dose, 64 hr): 11
- Survival (%) post bacterial challenge ([2]; single dose, 64 hr): 73%
- Survival post bacterial challenge, surviving mice ([2]; single dose, 72 hr): 11
- Survival (%) post bacterial challenge ([2]; single dose, 72 hr): 73%
- Survival post bacterial challenge, surviving mice ([2]; single dose, 96 hr): 10
- Survival (%) post bacterial challenge ([2]; single dose, 96 hr): 66%
- (B) MIC of Carb when combined with peptide [3]: 64 µg/mL
- MIC A MIC of Peptides [3]: 4 µg/mL
- (A) Peptide doses together with Carb [3]: .5 µg/mL
- (B) MIC of Cipro when combined with peptide [4]: .25 µg/mL
- MIC A MIC of Peptides [4]: 1 µg/mL
- (A) Peptide doses together with Cipro [4]: .5 µg/mL
- Mortality (%) [5]: 80%
- FIC for combination of cationic peptide and lysozyme (P. aeruginosa (H103)): 0.37
- Lowest [CP] showing synergy (P. aeruginosa (H103)): 1.3 µg/mL
- Lowest [Lyso] showing synergy (P. aeruginosa (H103)): 7.8 µg/mL
- FIC for combination of cationic peptide and lysozyme (E. coli [6]): 0.25
- Lowest [CP] showing synergy (E. coli [6]): 0.081 µg/mL
- Lowest [Lyso] showing synergy (E. coli [6]): 7.8 µg/mL
- FIC for combination of cationic peptide and lysozyme (Salmonella typhi): 0.53
- Lowest [CP] showing synergy (Salmonella typhi): 2.61 µg/mL
- Lowest [Lyso] showing synergy (Salmonella typhi): 31.3 µg/mL
